Assay results reported in article PMC1810525, “Antagonism of the prostaglandin D2 receptor CRTH2 attenuates asthma pathology in mouse eosinophilic airway inflammation” (Respiratory Research, 2007).
Read-outs that look alike come from different tables or passages of the source.

What was measured:
AT1 = target: T1, AT1 (Homo sapiens, UniProt P30556); experiment: Profiling panel, radioligand binding AT1; conditions: 10 μM
T1 sequence (P30556 1-359): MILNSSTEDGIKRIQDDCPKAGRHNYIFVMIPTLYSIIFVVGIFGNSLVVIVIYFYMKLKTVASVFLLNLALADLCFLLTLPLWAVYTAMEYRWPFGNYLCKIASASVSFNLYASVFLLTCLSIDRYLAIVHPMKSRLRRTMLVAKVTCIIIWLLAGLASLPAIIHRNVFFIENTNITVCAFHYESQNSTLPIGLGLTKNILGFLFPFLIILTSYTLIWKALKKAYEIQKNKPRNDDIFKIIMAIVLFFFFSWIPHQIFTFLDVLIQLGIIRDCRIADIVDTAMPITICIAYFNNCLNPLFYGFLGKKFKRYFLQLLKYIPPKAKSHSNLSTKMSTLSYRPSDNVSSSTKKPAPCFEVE
Description: (§4) All assays were performed using recombinant human receptors and enzymes, and included the appropriate controls for assay validation. Enzymatic and binding assays, except for muscarinic binding, were performed by CEREP in vitro pharmacology profiling services. […] For stimulation of C3a, C5a, and ChemR23 receptors in InsP assays the following agonists were used: human recombinant C3a (C3a receptor), human recombinant C5a (C5a receptor), and the nonapeptide Chemerin (ChemR23).

mCRTH2 [1] = target: T2, mCRTH2 (Mus musculus, UniProt Q9Z2J6); experiment: mCRTH2 whole cell competition binding ([3H]PGD2); conditions: displacement of [3H]PGD2, mCRTH2-HEK cells
T2 construct: expressed in transfected cells
T2 sequence (Q9Z2J6 1-382): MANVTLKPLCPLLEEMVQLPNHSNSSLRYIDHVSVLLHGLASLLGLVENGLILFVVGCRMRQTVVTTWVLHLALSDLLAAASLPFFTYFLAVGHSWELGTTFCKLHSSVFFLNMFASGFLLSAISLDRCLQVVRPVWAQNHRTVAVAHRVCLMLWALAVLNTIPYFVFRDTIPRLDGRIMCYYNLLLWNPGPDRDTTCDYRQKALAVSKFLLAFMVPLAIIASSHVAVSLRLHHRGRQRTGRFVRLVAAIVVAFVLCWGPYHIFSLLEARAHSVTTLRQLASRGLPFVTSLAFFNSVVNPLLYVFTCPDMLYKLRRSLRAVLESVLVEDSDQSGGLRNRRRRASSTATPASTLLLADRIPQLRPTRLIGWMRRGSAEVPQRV
Text: (§1) The coding sequence of mCRTH2 (genbank accession no. AF054507) was amplified by PCR from mouse hippocampus cDNA and inserted into the pcDNA3.1(+) expression vector (invitrogen). A HEK293 cell line, stably expressing mCRTH2 (hereafter referred to as mCRTH2-HEK cells) was generated under G418 (Gibco #11811) selection and used as described below in whole cell binding and functional inositol phosphate accumulation assays. The coding sequence of mTP (genbank accession no. D10849) was amplified by PCR from mouse spleen cDNA and inserted into pcDNA3.1(+). HEK293 cells were transiently transfected with mTP as described and assayed after 48 hr as outlined below.
Binding assays were performed essentially as described previously. In brief, mCRTH2-HEK cells or HEK cells transiently transfected with mTP were seeded into white 96 well plates (Costar #3917) at a density of 30.000 cells/well. About 18–24 hr later, whole cell competition binding experiments were performed using 0.8 nM [^3H]PGD2 (Amersham #TRK734, 166 Ci/mmol) or 0.7 nM [^3H]SQ29548 (PerkinElmer #NET-936, 48.2 Ci/mmol), for mCRTH2 and mTP respectively. Total and nonspecific binding were determined in the absence and presence of 10 μM PGD2 for mCRTH2 and 10 μM U46619 for mTXA2 receptors.
(§2) was performed using the Prism 3.0 software (GraphPad Software, San Diego) as described previously with the following exceptions: Binding data from competition binding assays were normalized to percent of specific binding of [^3H]PGD2 or [^3H]SQ29548 and the Ki was then determined using the Cheng-Prusoff equation Ki = IC50/(1+L/Kd), where L is the concentration of radioactive ligand and Kd is its dissociation constant. For Schild analysis, global fitting using the Gaddum/Schild competitive interaction model was applied after the functional concentration-response curves for the agonists PGD2 or U46619 in the absence or presence of various antagonist concentrations were normalized to percent of the maximal response obtained by agonist alone.

mTP [2] = target: T3, mTP (Mus musculus, UniProt P30987); experiment: mTP whole cell competition binding ([3H]SQ29548); conditions: displacement of [3H]SQ29548, HEK cells transfected with mTP
T3 construct: expressed in transfected cells; host or cells: HEK293 (transient, pcDNA3.1(+))
T3 sequence (P30987 1-341): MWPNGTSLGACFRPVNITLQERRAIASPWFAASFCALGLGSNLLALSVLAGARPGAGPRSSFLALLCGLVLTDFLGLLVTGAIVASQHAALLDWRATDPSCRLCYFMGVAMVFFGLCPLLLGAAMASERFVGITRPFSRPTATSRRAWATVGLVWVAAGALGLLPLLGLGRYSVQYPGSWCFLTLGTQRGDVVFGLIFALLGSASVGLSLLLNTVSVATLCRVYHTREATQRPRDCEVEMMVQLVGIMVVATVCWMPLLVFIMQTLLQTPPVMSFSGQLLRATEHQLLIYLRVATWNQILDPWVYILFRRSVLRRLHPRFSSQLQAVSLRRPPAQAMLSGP
Text: as §1
Binding assays were performed essentially as described previously. […] Total and nonspecific binding were determined in the absence and presence of 10 μM PGD2 for mCRTH2 and 10 μM U46619 for mTXA2 receptors.
was performed using the Prism 3.0 software (GraphPad Software, San Diego) as described previously with the following exceptions: Binding data from competition binding assays were normalized to percent of specific binding of [^3H]PGD2 or [^3H]SQ29548 and the Ki was then determined using the Cheng-Prusoff equation Ki = IC50/(1+L/Kd), where L is the concentration of radioactive ligand and Kd is its dissociation constant. […]

mTP [3] = target: T3, mTP; experiment: Inositol phosphate accumulation assay, HEK cells transfected with mTP (Schild analysis vs U46619); format: cell-based
Text: as §1
(§3) mCRTH2-HEK or HEK cells transiently transfected with mTP were seeded at a density of 30.000 cells/well in poly-D-lysine coated 96-well tissue culture plates and labeled by overnight incubation in medium containing 5 μCi myo- [2-^3H]-inositol (TRK911, Amersham Biosciences). After washing, cells were stimulated with the respective ligands in the presence of 5 mM LiCl (HBSS, GIBCO cat. 14025–050, 45 min, 37°C) and the inositol phosphate fraction was quantified using a scintillation proximity assay (SPA) as described previously. To facilitate inositol phosphate generation by the Gi-selective CRTH2 receptor, mCRTH2-HEK cells were transiently transfected with a promiscuous Gα protein [29].
as §2

CysLT1 = target: T4, CysLT1 (Homo sapiens, UniProt Q9Y271); experiment: Profiling panel, radioligand binding CysLT1; conditions: 10 μM
T4 sequence (Q9Y271 1-337): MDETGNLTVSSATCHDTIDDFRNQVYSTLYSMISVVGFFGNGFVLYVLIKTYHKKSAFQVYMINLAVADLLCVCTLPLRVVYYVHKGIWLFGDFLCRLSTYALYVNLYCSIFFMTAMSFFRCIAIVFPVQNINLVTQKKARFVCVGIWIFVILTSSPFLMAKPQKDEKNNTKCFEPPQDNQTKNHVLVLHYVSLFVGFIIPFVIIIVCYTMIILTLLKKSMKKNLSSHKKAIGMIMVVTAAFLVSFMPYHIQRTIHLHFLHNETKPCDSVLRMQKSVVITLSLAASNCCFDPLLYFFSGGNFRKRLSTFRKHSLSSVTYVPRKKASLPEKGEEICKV
Description: as §4

mCRTH2 [4] = target: T2, mCRTH2; experiment: Inositol phosphate accumulation assay, mCRTH2-HEK cells (Schild analysis vs PGD2); format: cell-based; conditions: PGD2 concentration-response, InsP
Text: as §1, §3, §2

BLT1 = BLT1 (Homo sapiens, UniProt Q15722); experiment: Profiling panel, radioligand binding BLT1; conditions: 10 μM
BLT1, sequence (Q15722 whole entry): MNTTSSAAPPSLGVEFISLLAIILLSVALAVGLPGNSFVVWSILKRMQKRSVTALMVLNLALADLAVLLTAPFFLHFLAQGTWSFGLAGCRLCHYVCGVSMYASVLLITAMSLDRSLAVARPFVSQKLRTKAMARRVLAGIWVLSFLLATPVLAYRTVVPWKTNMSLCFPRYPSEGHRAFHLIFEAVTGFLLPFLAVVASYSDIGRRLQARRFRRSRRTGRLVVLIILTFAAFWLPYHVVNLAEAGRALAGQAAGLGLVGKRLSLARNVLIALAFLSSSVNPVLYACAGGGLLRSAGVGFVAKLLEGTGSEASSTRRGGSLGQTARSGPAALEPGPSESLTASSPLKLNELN
Description: as §4

Row | Compound | % of control AT1 (AT1) [%] | pKi mCRTH2 (mCRTH2 [1]) | Ki (mCRTH2 [1]; printed in brackets after pKi, read-out: Ki mCRTH2) [nM] | pKi mTP (mTP [2]) | effect on signaling of mTP (mTP [3]; InsP functional assay) | % of control CysLT1 (CysLT1) [%] | Schild slope mCRTH2 (mCRTH2 [4]) | pA2 mCRTH2 (mCRTH2 [4]) | % of control BLT1 (BLT1) [%] | Ki (mCRTH2 [1]; read-out: pKi mCRTH2 (converted)) [nM] | Ki (mTP [2]; read-out: pKi mTP (converted)) [nM] | Schild slope mTP (mTP [3]; Schild analysis, U46619 concentration-response, InsP) | Kb (mTP [3]; Schild analysis, U46619 concentration-response, InsP, read-out: pA2 mTP (converted)) [nM] | Kb (mCRTH2 [4]; read-out: pA2 mCRTH2 (converted)) [nM]
1 | CN(C1CCc2c(c3ccccc3n2CC(=O)O)C1)S(=O)(=O)c1ccc(F)cc1 (stereo not drawn) [TM30089] | 90.1 ± 2.8 | 8.96 ± 0.05 | 1.1 | 5.30 ± 0.03 | does not interfere with signaling of mTP | 116.9 ± 10.5 | 1.45 ± 0.08 | 9.15 ± 0.11 | 89.3 ± 3.5 |  |  |  |  | 
2 | O=C(O)CCn1c2c(c3ccccc31)C[C@H](NS(=O)(=O)c1ccc(F)cc1)CC2 [ramatroban, reference compound] |  |  |  |  |  |  | 0.94 ± 0.05 |  |  | 4.17 | 1.2 | 1.35 ± 0.06 | 0.437 | 8.32
